Experimental data taken from PMC6790288 (The journal of pain : official journal of the American Pain …, 2019).

How the values were obtained:
[1] = 12 participants, 5 days rifampicin, 100 mg oral tramadol; cited from earlier work
[2] = test system: healthy participants; experiment: Respiratory rate; settings: trial B (with paroxetine), n = 60; MPD (SD)
[3] = test system: cold-induced pain; experiment: Cold pressor test; assay type: in vivo, human; settings: trial A
[4] = test system: healthy participants; experiment: Abuse liability visual analog scales; assay type: in vivo, human; settings: trial A, n = 43, 0–100 mm VAS after seventh dose, M (SD)
[5] = test system: pupil diameter; experiment: Pupillometry; assay type: in vivo, human; settings: trial A; for Pupil diameter, predose: before first dose of segment
[6] = achiral analyses of blood; intoxication with the labelled substance; cited from earlier work
[7] = tramadol and its metabolites; cited from earlier work
[8] = test system: healthy participants; experiment: Drug-related adverse events
[9] = test system: cold-induced pain; settings: VAS, mean [SD], cited from earlier work
[10] = cited from earlier work

## COc1cccc(C2(O)CCCCC2CN(C)C)c1 (centres unmarked) [Tramadol, tramadol]
[1]
  decrease of AUC by rifampicin induction: 59%
[2]
  Average postdose respiratory rate, mean paired difference versus placebo: −.34 [.99] min^−1
[3]
  average duration of tolerance to pain: 62 s
[4]
  Drug liking-disliking: 48(15) mm
  Strength of drug effect: 32 (29) mm
  Take drug again: 47(18) mm
[4]; listed as tramadol
  Strength of drug effect: 32 [29] mm
[5]; after dosing, mean (SD)
  pupil diameter, mean paired reduction compared with placebo: −.7 (.6) mm
[5]; n = 43, M (SD)
  Pupil diameter, after seventh dose: 5.5 (1.1) mm
  Pupil diameter, predose: 6.1 (.9) mm
[5]; n = 43, M (SD), listed as tramadol
  Pupil diameter, predose: 6.1 [.9] mm
[6]
  mean blood M1 level in fatal intoxications: 1,900 ng/mL
[7]
  tramadol dose appearing in the urine: > 90%
[8]; trial A
  Deaths: 0 (0) n (%)
  Severe AEs: 0 (0) n (%)
  participants reporting drug-related AEs: 49%
[8]; trial A, all
  Dizziness: 5(12) n (%)
  Euphoria: 0 (0) n (%)
  Feel abnormal: 1 (2) n (%)
  Feel hot: 0 (0) n (%)
  Headache: 7(17) n (%)
  Nausea: 5(12) n (%)
  Presyncope: 0 (0) n (%)
  Pruritus: 4(10) n (%)
  Somnolence: 2 (5) n (%)
  Spasticity: 1 (2) n (%)
  Sweating: 0 (0) n (%)
  Vomiting: 1 (2) n (%)
[8]; trial A, male
  Dizziness: 5(12) n (%)
  Euphoria: 0 (0) n (%)
  Feel abnormal: 1 (2) n (%)
  Feel hot: 0 (0) n (%)
  Headache: 7(17) n (%)
  Nausea: 5(12) n (%)
  Presyncope: 0 (0) n (%)
  Pruritus: 4(10) n (%)
  Somnolence: 2 (5) n (%)
  Spasticity: 1 (2) n (%)
  Sweating: 0 (0) n (%)
  Vomiting: 1 (2) n (%)
[8]; trial A, n = 43 (all male)
  All drug-related AEs: 20 (49) n (%)
[8]; trial B
  Deaths: 0 (0) n (%)
  Severe AEs: 0 (0) n (%)
[8]; trial B (with paroxetine)
  participants reporting drug-related AEs: 50%
[8]; trial B (with paroxetine), n = 60
  All drug-related AEs: 30 (50) n (%)
[8]; trial B, all
  Dizziness: 8(13) n (%)
  Euphoria: 1 (2) n (%)
  Feel abnormal: 2 (3) n (%)
  Feel hot: 0 (0) n (%)
  Headache: 6(10) n (%)
  Nausea: 8(13) n (%)
  Presyncope: 1 (2) n (%)
  Pruritus: 1 (2) n (%)
  Somnolence: 4(7) n (%)
  Spasticity: 3 (5) n (%)
  Sweating: 1 (2) n (%)
  Vomiting: 2 (3) n (%)
[8]; trial B, female
  Dizziness: 4(22) n (%)
  Euphoria: 0 (0) n (%)
  Feel abnormal: 0 (0) n (%)
  Feel hot: 0 (0) n (%)
  Headache: 6 (33) n (%)
  Nausea: 2(11) n (%)
  Presyncope: 0 (0) n (%)
  Pruritus: 1 (6) n (%)
  Somnolence: 2(11) n (%)
  Spasticity: 0 (0) n (%)
  Sweating: 0 (0) n (%)
  Vomiting: 0 (0) n (%)
[8]; trial B, male
  Dizziness: 4(10) n (%)
  Euphoria: 1 (2) n (%)
  Feel abnormal: 2 (5) n (%)
  Feel hot: 0 (0) n (%)
  Headache: 0 (0) n (%)
  Nausea: 6(14) n (%)
  Presyncope: 1 (2) n (%)
  Pruritus: 0 (0) n (%)
  Somnolence: 2 (5) n (%)
  Spasticity: 3 (7) n (%)
  Sweating: 1 (2) n (%)
  Vomiting: 2 (5) n (%)
[8]; trial B, same participants
  headache incidence, tramadol compared with desmetramadol AE profile: −40%
  nausea incidence, tramadol compared with desmetramadol AE profile: −50%
  presyncope incidence, tramadol compared with desmetramadol AE profile: −83%
  pruritus incidence, tramadol compared with desmetramadol AE profile: −75%
  somnolence incidence, tramadol compared with desmetramadol AE profile: −60%
  vomiting incidence, tramadol compared with desmetramadol AE profile: −78%
[9]; after a single 50 mg dose of tramadol
  peak mean pain perception to cold after tramadol: 5.0 [2.3] cm
[9]; before a single 50 mg dose of tramadol
  peak mean pain perception to cold before tramadol: 6.3 [2.0] cm
[10]
  lethal dose: > 5 g
[10]; in vivo
  median ingested dose in overdose with respiratory depression: 2,500 mg
[10]; range = 450−6,000 mg
  median ingested dose in overdose with no respiratory depression: 1,000 mg
